Results on 34 compounds are retold here after patent US20250129027A1 (APOGEE PHARMACEUTICALS, INC., priority 2023, published 2025).

Assay [1] has as its target human recombinant MAGL (Homo sapiens (Human), UniProt Q99685). The assay is described as follows: In vitro inhibition of MAGL activity (inhibitor screening kit, 4-nitrophenylacetate). The assay is classed as biochemical. To be noted: human recombinant MAGL. How it is done:
The inhibitory effect of the compounds on activity of human recombinant MAGL was also studied using a commercial inhibitor screening kit (Cayman Chemicals). In brief, MAGL hydrolyzes 4-nitrophenylacetate resulting in a yellow product, 4-nitrophenol with an absorbance at 405-412 nm, while the inhibitor will inhibit the MAGL activity and thus reduce the yellow signal. The absorbance of the yellow product can be analyzed using the plate reader. Inhibition is calculated as a percentage of the treated sample over the non-treated MAGL control based on the signal values.

For assay [2], the target named is human recombinant FAAH (Homo sapiens (Human), UniProt O00519). As to the kind of experiment: In vitro inhibition of FAAH activity (fluorescent inhibitor screening kit, AMC arachidonoyl amide). The assay is classed as biochemical. To be noted: human recombinant FAAH; read-out: Inhibition on FAAH activity (IC50). From the text:
The inhibitory effect of compounds of Formula (I-IV) on the activity of human recombinant FAAH was studied using a commercial inhibitor screening kit (Cayman Chemicals, Godlewski et al., 2010 [19]). In brief, FAAH hydrolyzes AMC arachidonoyl amide resulting in the release of the fluorescent product, while the inhibitor will inhibit the FAAH activity and thus reduce the fluorescent signal. The resulting fluorophore can be analyzed using an excitation wavelength of 340-360 nm and an emission wavelength of 450-465 nm by a plate reader (Synergy H1, Biotek). Inhibition is calculated as a percentage of the treated sample over the non-treated control based on the signal values, and where possible, a range of concentrations of compounds was tested to find the IC50 values (i.e. the concentration of compound that inhibited 50% FAAH activity).

pIC50: −log10 of the molar value.

Chain of human recombinant FAAH (O00519 whole entry): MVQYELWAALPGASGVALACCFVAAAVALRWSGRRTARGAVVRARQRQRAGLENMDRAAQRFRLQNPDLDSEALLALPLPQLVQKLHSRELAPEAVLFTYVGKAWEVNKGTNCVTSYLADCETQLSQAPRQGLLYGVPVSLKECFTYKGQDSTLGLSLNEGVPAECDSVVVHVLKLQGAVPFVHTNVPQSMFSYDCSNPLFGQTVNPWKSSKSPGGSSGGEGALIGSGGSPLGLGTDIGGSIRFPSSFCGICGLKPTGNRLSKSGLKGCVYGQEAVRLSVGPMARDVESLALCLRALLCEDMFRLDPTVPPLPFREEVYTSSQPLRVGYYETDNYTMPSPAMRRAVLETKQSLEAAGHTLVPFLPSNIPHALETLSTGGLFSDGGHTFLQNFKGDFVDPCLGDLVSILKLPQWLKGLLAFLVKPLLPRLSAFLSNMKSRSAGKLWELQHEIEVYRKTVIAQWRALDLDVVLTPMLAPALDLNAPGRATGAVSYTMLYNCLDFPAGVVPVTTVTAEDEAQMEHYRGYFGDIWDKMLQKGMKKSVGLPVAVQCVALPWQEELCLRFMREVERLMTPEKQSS
Chain of human recombinant MAGL (Q99685 whole entry): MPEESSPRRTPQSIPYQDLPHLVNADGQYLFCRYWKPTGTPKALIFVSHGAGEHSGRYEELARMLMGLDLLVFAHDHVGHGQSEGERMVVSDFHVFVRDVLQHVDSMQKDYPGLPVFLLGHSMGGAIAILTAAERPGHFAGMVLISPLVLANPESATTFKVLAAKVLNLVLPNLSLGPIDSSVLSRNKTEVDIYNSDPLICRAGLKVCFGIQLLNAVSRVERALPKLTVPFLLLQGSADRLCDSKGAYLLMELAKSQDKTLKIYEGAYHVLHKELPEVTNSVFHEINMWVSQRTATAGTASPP

In general, pIC50 refers to the negative decadic logarithm of the IC50, by convention in mol/L. Consider `COc1ccc(OC(=O)NC2CCCC2)cc1-c1cncc(-c2cccs2)c1` [Example 68, 4-methoxy-3-(5-(thiophen-2-yl)pyridin-3-yl)phenyl cyclopentylcarbamate], for which the negative logarithm of the IC50 (pIC50) in assay [1] is approximately 5.00; in assay [2], 6.00 to 7.00.
Take `COc1ccc(OC(=O)NC2CCCCC2)cc1-c1cncc(-c2cccs2)c1` [Example 69, 4-methoxy-3-(5-(thiophen-2-yl)pyridin-3-yl)phenyl cyclohexylcarbamate]: the pIC50 was less than 5.00 in assay [1] and 6.00 to 7.00 in assay [2].
Turning to `COc1ccc(OC(=O)NC2CCCCCC2)cc1-c1cncc(-c2cccs2)c1` [Example 70, 4-methoxy-3-(5-(thiophen-2-yl)pyridin-3-yl)phenyl cycloheptylcarbamate], the pIC50 in assay [1] was less than 5.00; in assay [2], 6.00 to 7.00.
Take `CCCCCNC(=O)Oc1cccc(-c2cncc(-c3ncco3)c2)c1` [Example 71, 3-(5-(oxazol-2-yl)pyridin-3-yl)phenyl pentylcarbamate]: the negative logarithm of the IC50 (pIC50) is less than 5.00 in assay [1] and 6.00 to 8.00 in assay [2].
Take `CCCCCCCNC(=O)Oc1cccc(-c2cncc(-c3ncco3)c2)c1` [Example 72, 3-(5-(oxazol-2-yl)pyridin-3-yl)phenyl heptylcarbamate]: the pIC50 was less than 6.00 in assay [1] and 8.00 to 9.00 in assay [2].
In the case of `CCCCCCCCNC(=O)Oc1cccc(-c2cncc(-c3ncco3)c2)c1` [Example 73, 3-(5-(oxazol-2-yl)pyridin-3-yl)phenyl octylcarbamate], the negative logarithm of the IC50 (pIC50) in assay [1] was less than 5.00; in assay [2] it was 8.00 to 9.00.
Consider `O=C(NCC1CCCCC1)Oc1cccc(-c2cncc(-c3ncco3)c2)c1` [Example 74, 3-(5-(oxazol-2-yl)pyridin-3-yl)phenyl (cyclohexylmethyl)carbamate], for which the figures for the pIC50 in assay [1] and in assay [2] were less than 6.00 and 7.00 to 8.00, respectively.
For the compound `O=C(NC1CCCC1)Oc1cccc(-c2cncc(-c3ncco3)c2)c1` [Example 75, 3-(5-(oxazol-2-yl)pyridin-3-yl)phenyl cyclopentylcarbamate], the negative-log IC50 (pIC50) in assay [1] was less than 5.00; in assay [2], 6.00 to 8.00.
With `O=C(NC1CCCCC1)Oc1cccc(-c2cncc(-c3ncco3)c2)c1` [Example 76, 3-(5-(oxazol-2-yl)pyridin-3-yl)phenyl cyclohexylcarbamate], the pIC50 is 5.00 to 6.00 in assay [1] and 6.00 to 8.00 in assay [2].
Turning to `O=C(NC12CC3CC(CC(C3)C1)C2)Oc1cccc(-c2cncc(-c3ncco3)c2)c1` [Example 77, 3-(5-(oxazol-2-yl)pyridin-3-yl)phenyl ((1s,3s)-adamantan-1-yl)carbamate], the pIC50 in assay [1] was less than 5.00; in assay [2], less than 6.00.
In the case of `CCCCCCCCNC(=O)Oc1ccc(OC)c(-c2cncc(-c3ncco3)c2)c1` [Example 78, 4-methoxy-3-(5-(oxazol-2-yl)pyridin-3-yl)phenyl octylcarbamate], the values for the negative-log IC50 (pIC50) in assay [1] and in assay [2] were 5.00 to 6.00 and 7.00 to 8.00, respectively.
For `COc1ccc(OC(=O)NC2CCCC2)cc1-c1cncc(-c2ncco2)c1` [Example 80, 4-methoxy-3-(5-(oxazol-2-yl)pyridin-3-yl)phenyl cyclopentylcarbamate], in that order: less than 5.00 and 7.00 to 8.00.
For `COc1ccc(OC(=O)NC2CCCCC2)cc1-c1cncc(-c2ncco2)c1` [Example 81, 4-methoxy-3-(5-(oxazol-2-yl)pyridin-3-yl)phenyl cyclohexylcarbamate], in that order: less than 5.00 and 7.00 to 8.00.
In the case of `COc1ccc(OC(=O)NC2CCC(C)CC2)cc1-c1cncc(-c2ncco2)c1` (centres unmarked) [Example 82, 4-methoxy-3-(5-(oxazol-2-yl)pyridin-3-yl)phenyl (4-methylcyclohexyl)carbamate], the pIC50 was less than 5.00 in assay [1] and 6.00 to 7.00 in assay [2].
On to `CCCCCCCCNC(=O)Oc1cc(-c2cncc(-c3ncco3)c2)ccc1OC` [Example 84, 2-methoxy-5-(5-(oxazol-2-yl)pyridin-3-yl)phenyl octylcarbamate], for which the pIC50 is approximately 5.00 in assay [1] and 6.00 to 7.00 in assay [2].
As for `O=C(NC1CCCC1)Oc1ccc(F)c(-c2cncc(-c3ncco3)c2)c1` [Example 85, 4-fluoro-3-(5-(oxazol-2-yl)pyridin-3-yl)phenyl cyclopentylcarbamate], the pIC50 is less than 5.00 in assay [1] and 7.00 to 8.00 in assay [2].
Take `CC1CCC(NC(=O)Oc2ccc(F)c(-c3cncc(-c4ncco4)c3)c2)CC1` (centres unmarked) [Example 86, 4-fluoro-3-(5-(oxazol-2-yl)pyridin-3-yl)phenyl (4-methylcyclohexyl)carbamate]: the pIC50 in assay [1] was less than 5.00; in assay [2], 7.00 to 8.00.
As for `O=C(NC1CCCCC1)Oc1ccc(OC(F)(F)F)c(-c2cncc(-c3ncco3)c2)c1` [Example 89, 3-(5-(oxazol-2-yl)pyridin-3-yl)-4-(trifluoromethoxy)phenyl cyclohexylcarbamate], the pIC50 in assay [1] was less than 5.00; in assay [2], 6.00 to 7.00.
`CC1CCC(NC(=O)Oc2ccc(OC(F)(F)F)c(-c3cncc(-c4ncco4)c3)c2)CC1` (centres unmarked) [Example 90, 3-(5-(oxazol-2-yl)pyridin-3-yl)-4-(trifluoromethoxy)phenyl (4-methylcyclohexyl)carbamate]: the negative logarithm of the IC50 (pIC50) in assay [1] is less than 6.00; in assay [2], 6.00 to 7.00.
Consider `CCCCCCCCNC(=O)Oc1cc(-c2cncc(-c3ncco3)c2)ccc1C` [Example 92, 2-methyl-5-(5-(oxazol-2-yl)pyridin-3-yl)phenyl octylcarbamate], for which the negative logarithm of the IC50 (pIC50) in assay [1] is less than 5.00; in assay [2], 6.00 to 7.00.
In the same order, the values of `Cc1ccc(-c2cncc(-c3ncco3)c2)cc1OC(=O)NCC1CCCCC1` [Example 93, 2-methyl-5-(5-(oxazol-2-yl)pyridin-3-yl)phenyl (cyclohexylmethyl)carbamate] are 5.00 to 6.00 and less than 6.00.
In the case of `Cc1ccc(-c2cncc(-c3ncco3)c2)cc1OC(=O)NCc1ccccc1` [Example 94, 2-methyl-5-(5-(oxazol-2-yl)pyridin-3-yl)phenyl benzylcarbamate], the negative-log IC50 (pIC50) in assay [1] and in assay [2] was less than 6.00 in each case.
For the compound `Cc1ccc(-c2cncc(-c3ncco3)c2)cc1OC(=O)NC1CCCCC1` [Example 95, 2-methyl-5-(5-(oxazol-2-yl)pyridin-3-yl)phenyl cyclohexylcarbamate], the pIC50 in assay [1] and in assay [2] was less than 6.00 each time.
Turning to `Cc1ccc(-c2cncc(-c3ncco3)c2)cc1OC(=O)NC1CCC(C)CC1` (centres unmarked) [Example 96, 2-methyl-5-(5-(oxazol-2-yl)pyridin-3-yl)phenyl (4-methylcyclohexyl)carbamate], the pIC50 in assay [1] is less than 5.00; in assay [2] it was less than 6.00.
For `Cc1ccc(-c2cncc(-c3ncco3)c2)cc1OC(=O)NC1CCCCCC1` [Example 97, 2-methyl-5-(5-(oxazol-2-yl)pyridin-3-yl)phenyl cycloheptylcarbamate], the pIC50 in assay [1] and in assay [2] was less than 6.00 in each case.
For `Cc1ccc(-c2cncc(-c3ncco3)c2)cc1OC(=O)NC1CCCCCCC1` [Example 98, 2-methyl-5-(5-(oxazol-2-yl)pyridin-3-yl)phenyl cyclooctylcarbamate], the results for the negative logarithm of the IC50 (pIC50) in assay [1] and in assay [2] were approximately 6.00 and less than 6.00, respectively.
In the same order, the values of `Cc1cc(OC(=O)NCC2CCCCC2)cc(-c2cncc(-c3ncco3)c2)c1` [Example 99, 3-methyl-5-(5-(oxazol-2-yl)pyridin-3-yl)phenyl (cyclohexylmethyl)carbamate] are approximately 5.00 and 6.00 to 7.00.
In the same order, the values of `Cc1cc(OC(=O)NCc2ccccc2)cc(-c2cncc(-c3ncco3)c2)c1` [Example 100, 3-methyl-5-(5-(oxazol-2-yl)pyridin-3-yl)phenyl benzylcarbamate] are less than 5.00 and less than 6.00.
In the case of `Cc1cc(OC(=O)NC2CCCCC2)cc(-c2cncc(-c3ncco3)c2)c1` [Example 101, 3-methyl-5-(5-(oxazol-2-yl)pyridin-3-yl)phenyl cyclohexylcarbamate], the results for the pIC50 in assay [1] and in assay [2] were less than 5.00 and less than 6.00, respectively.
As to `Cc1cc(OC(=O)NC2CCC(C)CC2)cc(-c2cncc(-c3ncco3)c2)c1` (centres unmarked) [Example 102, 3-methyl-5-(5-(oxazol-2-yl)pyridin-3-yl)phenyl (4-methylcyclohexyl)carbamate], the pIC50 is less than 5.00 in assay [1] and less than 6.00 in assay [2].
`Cc1cc(OC(=O)NC2CCCCCC2)cc(-c2cncc(-c3ncco3)c2)c1` [Example 103, 3-methyl-5-(5-(oxazol-2-yl)pyridin-3-yl)phenyl cycloheptylcarbamate]: the pIC50 in assay [1] is approximately 5.00; in assay [2], 6.00 to 7.00.
As to `Cc1cc(OC(=O)NC2CCCCCCC2)cc(-c2cncc(-c3ncco3)c2)c1` [Example 104, 3-methyl-5-(5-(oxazol-2-yl)pyridin-3-yl)phenyl cyclooctylcarbamate], the negative-log IC50 (pIC50) is approximately 5.00 in assay [1] and 6.00 to 7.00 in assay [2].
For the compound `CCCCCCCCNC(=O)Oc1cccc(-c2cncc(-c3ccno3)c2)c1` [Example 105, 3-(5-(isoxazol-5-yl)pyridin-3-yl)phenyl octylcarbamate], the pIC50 is less than 5.00 in assay [1] and 8.00 to 9.00 in assay [2].
As to `O=C(NC1CCCC1)Oc1cccc(-c2cncc(-c3ccno3)c2)c1` [Example 106, 3-(5-(isoxazol-5-yl)pyridin-3-yl)phenyl cyclopentylcarbamate], the figures for the pIC50 in assay [1] and in assay [2] were less than 5.00 and 7.00 to 8.00, respectively.
